One compound from US7087253B2 (AKH Arzneimittelkontor GmbH, priority 2002, dated 2006) can be followed below.

For this experiment, the system named is patients with acute bronchitis. The experiment is described as follows: double blind, randomized, placebo-controlled clinical study, 14-day treatment of acute bronchitis. The class given is in vivo. As to the method: A parallel group of patients was treated for 14 days correspondingly with placebo or cefuroxime.

On to `CO/N=C(\C(=O)N[C@@H]1C(=O)N2C(C(=O)O)=C(COC(N)=O)CS[C@H]12)c1ccco1` [cefuroxime], for which, for the setting “after 7±2 treatment days”, the “patients still with a pathological ausculatory finding” value is listed as 26.3% and the “patients who experienced a worsening of the symptoms (terminations because of a worsening of the acute bronchitis)” value was 7.6%. Where the note is “after 14±2 treatment days”, the “patients with worsening of the acute bronchitis” value was determined as 16.4% and the “patients with worsening, times as many as in the Eucalyptus oil/orange oil group” value was 10 times. The “patients still with a pathological ausculatory finding (pathological respiratory sounds)” value (after 14±2 days) is listed as 7.6%. For the same compound, the “general state of health, Eucalyptus oil/orange oil group versus cefuroxime group” value (human, in vivo) is given as “no differences worth mentioning”.
